Laboratory results: patent US7109197B2, “N-phenyl-4-(4-pyridyl)-2-pyrimidineamine derivatives” (Syngenta Crop Protection, Inc., priority 2000, dated 2006)

What was measured:
[1] = test system: Pyrenophora teres (Helminthosporium); assay: Assay B-10: Effect against Pyrenophora teres (Helminthosporium)/barley (net blotch on barley); type: in vivo; details: Pyrenophora teres on barley cv. Regina, 0.02% active substance, spray; for pest or weed control at 0.02 % strength: 96 h, read-out: B10 activity
Protocol: Assay B-10: Effect Against Pyrenophora teres (Helminthosporium)/Barley (Net Blotch on Barley) 1 week old barley plants cv. Regina are treated with a formulated testcompound (0.02% active substance) in a spray chamber. Two days after application barley plants are inoculated by spraying a spore suspension (3×10^4 conidia/ml) on the test plants. After an incubation period of 2 days at 20° C. and 95% r.h. plants are kept for 2 days at 20° C. and 60% r.h. in a greenhouse. The disease incidence is assessed 4 days after inoculation.

Erysiphe graminis = assay: Assay B-6: Effect against Erysiphe graminis on barley (powdery mildew); residual protective / systemic activity; type: in vivo; details: 0.02% active substance spray (residual) or 0.002% soil (systemic), variant not stated
Protocol: Assay B-6: Effect Against Erysiphe graminis on Barley (Powdery Mildew on Barley) a) Residual Protective Activity […] The infected plants are placed in a greenhouse at 22°. 12 days after infection, the fungal attack is evaluated. b) Systemic Activity […] […] 48 hours later, the plants are dusted with conidia of the fungus. The infected plants are placed in a greenhouse at 22° C. 12 days after infection, the disease incidence is evaluated.

Septoria nodorum = assay: Assay B-12: Effect against Septoria nodorum/wheat (Septoria leaf spot on wheat); type: in vivo; details: Septoria nodorum on wheat cv. Arina, 0.02% active substance, spray; for pest or weed control at 0.02 % strength: Parastagonospora nodorum, 264 h, read-out: B12 activity
Protocol: Assay B-12: Effect Against Septoria nodorum/Wheat (Septoria Leaf Spot on Wheat) 1 week old wheat plants cv. Arina are treated with a formulated test compound (0.02% active substance) in a spray chamber. One day after application wheat plants are inoculated by spraying a spore suspension (5×10^5 conidia/ml) on the test plants. After an incubation period of 1 day at 20° C. and 95% r.h. plants are kept for 10 days at 20° C. and 60% r.h. in a greenhouse. The disease incidence is assessed 11 days after inoculation.

Venturia inaegualis = assay: Assay B-5: Residual protective activity against Venturia inaegualis on apples (scab on apple); type: in vivo; details: Venturia inaegualis on apple seedlings cv. McIntosh; 0.02% active substance, spray
Protocol: Assay B-5: Residual Protective Activity Against Venturia inaegualis on Apples (Scab on Apple) 4 week old apple seedlings cv. McIntosh are treated with the formulated testcompound (0.02% active substance) in a spray chamber. One day after application apple plants are inoculated by spraying a spore suspension (4×10^5 conidia/ml) on the test plants. After an incubation period of 4 days at 21° C. and 95% r. h. the plants are placed for 4 days at 21° C. and 60% r. h. in a greenhouse. After another 4 day incubation period at 21° C. and 95% r. h. the disease incidence is assessed.

Botrytis cinerea [2] = assay: Assay B-7: Botrytis cinerea/grape (Botrytis on grapes); type: in vivo; details: Botrytis cinerea on grape seedlings cv. Gutedel; 0.02% active substance, spray
Protocol: Assay B-7: Botrytis cinerea/Grape (Botrytis on Grapes) 5 week old grape seedlings cv. Gutedel are treated with the formulated testcompound (0.02% active substance) in a spray chamber. Two days after application grape plants are inoculated by spraying a spore suspension (1×10^6 conidia/ml) on the test plants. After an incubation period of 4 days at 21° C. and 95% r. h. in a greenhouse the disease incidence is assessed.

Pyricularia oryzae = type: in vivo; details: Pyricularia oryzae on rice cv. Sasanishiki; 0.02% active substance, spray
Botrytis cinerea [3] = assay: Assay B-8: Effect against Botrytis cinerea/tomato (Botrytis on tomatoes); type: in vivo; details: Botrytis cinerea on tomato cv. Roter Gnom; 0.02% active substance, spray
Protocol: Assay B-8: Effect Against Botrytis cinerea/Tomato (Botrytis on Tomatoes) 4 week old tomato plants cv. Roter Gnom are treated with the formulated testcompound 0.02% active substance) in a spray chamber. Two days after application tomato plants are inoculated by spraying a spore suspension (1×10^5 conidia/ml) on the test plants. After an incubation period of 4 days at 20° C. and 95% r. h. in a greenhouse the disease incidence is assessed.

Fusarium culmorum = type: in vivo; details: in vivo

## FC(F)(F)CNc1cc(-c2ccnc(Nc3cccc(Cl)c3)n2)ccn1 [Compound 103]
other
  melting point: 222 to 223 °C
[1]
  pest or weed control at 0.02 % strength: > 70%
Erysiphe graminis
  B6 activity: + (the activity observed in the corresponding test system is 70% or more)
Septoria nodorum
  pest or weed control at 0.02 % strength: > 70%

## CN(C)c1cc(-c2ccnc(Nc3cccc(Cl)c3)n2)ccn1 [Compound 59]
other
  melting point: 178 to 179 °C
[1]
  pest or weed control at 0.02 % strength: > 70%
Erysiphe graminis
  B6 activity: + (the activity observed in the corresponding test system is 70% or more)
Septoria nodorum
  pest or weed control at 0.02 % strength: > 70%

## OCCNc1cc(-c2ccnc(Nc3cccc(Cl)c3)n2)ccn1 [Compound 37]
[1]
  B10 activity: + (the activity observed in the corresponding test system is 70% or more)
Venturia inaegualis
  B5 activity: + (the activity observed in the corresponding test system is 70% or more)
Erysiphe graminis
  B6 activity: + (the activity observed in the corresponding test system is 70% or more)
Septoria nodorum
  B12 activity: + (the activity observed in the corresponding test system is 70% or more)
Botrytis cinerea [2]
  B7 activity: + (the activity observed in the corresponding test system is 70% or more)
Pyricularia oryzae
  B9 activity: + (the activity observed in the corresponding test system is 70% or more)
Botrytis cinerea [3]
  B8 activity: + (the activity observed in the corresponding test system is 70% or more)

## COCC(C)Nc1cc(-c2ccnc(Nc3cccc(Cl)c3)n2)cc(F)n1 (centres unmarked) [Compound 7]
[1]
  B10 activity: + (the activity observed in the corresponding test system is 70% or more)
Venturia inaegualis
  B5 activity: + (the activity observed in the corresponding test system is 70% or more)
Erysiphe graminis
  B6 activity: + (the activity observed in the corresponding test system is 70% or more)

## CC(C)=CCNc1cc(-c2ccnc(Nc3cccc(Cl)c3)n2)ccn1 [Compound 81]
[1]
  B10 activity: + (the activity observed in the corresponding test system is 70% or more)
Erysiphe graminis
  B6 activity: + (the activity observed in the corresponding test system is 70% or more)
Septoria nodorum
  B12 activity: + (the activity observed in the corresponding test system is 70% or more)
Botrytis cinerea [3]
  B8 activity: + (the activity observed in the corresponding test system is 70% or more)

## Clc1cccc(Nc2nccc(-c3ccnc(NC4CCOCC4)c3)n2)c1 [Compound 83]
[1]
  B10 activity: + (the activity observed in the corresponding test system is 70% or more)
Fusarium culmorum
  B11 activity: + (key: +: the activity observed in the corresponding test system is 70% or more)
Septoria nodorum
  B12 activity: + (the activity observed in the corresponding test system is 70% or more)
Botrytis cinerea [3]
  B8 activity: + (the activity observed in the corresponding test system is 70% or more)

## Clc1cccc(Nc2nccc(-c3ccnc(NCCN4CCOCC4)c3)n2)c1 [Compound 20]
[1]
  B10 activity: + (the activity observed in the corresponding test system is 70% or more)
Erysiphe graminis
  B6 activity: + (the activity observed in the corresponding test system is 70% or more)
Septoria nodorum
  B12 activity: + (the activity observed in the corresponding test system is 70% or more)
Botrytis cinerea [3]
  B8 activity: + (the activity observed in the corresponding test system is 70% or more)

## CC(=O)OCC(C)Nc1cc(-c2ccnc(Nc3cccc(Cl)c3)n2)ccn1 (centres unmarked) [Compound 50]
[1]
  B10 activity: + (the activity observed in the corresponding test system is 70% or more)
Venturia inaegualis
  B5 activity: + (the activity observed in the corresponding test system is 70% or more)
Erysiphe graminis
  B6 activity: + (the activity observed in the corresponding test system is 70% or more)
Septoria nodorum
  B12 activity: + (the activity observed in the corresponding test system is 70% or more)
Botrytis cinerea [2]
  B7 activity: + (the activity observed in the corresponding test system is 70% or more)
Pyricularia oryzae
  B9 activity: + (the activity observed in the corresponding test system is 70% or more)
Botrytis cinerea [3]
  B8 activity: + (the activity observed in the corresponding test system is 70% or more)

## COC(OC)C(C)Nc1cc(-c2ccnc(Nc3cccc(Cl)c3)n2)ccn1 (centres unmarked) [Compound 65]
[1]
  B10 activity: + (the activity observed in the corresponding test system is 70% or more)
Venturia inaegualis
  B5 activity: + (the activity observed in the corresponding test system is 70% or more)
Erysiphe graminis
  B6 activity: + (the activity observed in the corresponding test system is 70% or more)
Septoria nodorum
  B12 activity: + (the activity observed in the corresponding test system is 70% or more)
Botrytis cinerea [2]
  B7 activity: + (the activity observed in the corresponding test system is 70% or more)
Pyricularia oryzae
  B9 activity: + (the activity observed in the corresponding test system is 70% or more)
Botrytis cinerea [3]
  B8 activity: + (the activity observed in the corresponding test system is 70% or more)

## Nc1cc(-c2ccnc(Nc3cccc(Cl)c3)n2)ccn1 [Compound 58]
other
  melting point: 214 to 215 °C
[1]
  pest or weed control at 0.02 % strength: > 70%
Venturia inaegualis
  B5 activity: + (the activity observed in the corresponding test system is 70% or more)
Erysiphe graminis
  B6 activity: + (the activity observed in the corresponding test system is 70% or more)
Septoria nodorum
  pest or weed control at 0.02 % strength: > 70%
Botrytis cinerea [2]
  B7 activity: + (the activity observed in the corresponding test system is 70% or more)
Pyricularia oryzae
  B9 activity: + (the activity observed in the corresponding test system is 70% or more)
Botrytis cinerea [3]
  B8 activity: + (the activity observed in the corresponding test system is 70% or more)

## Clc1cccc(Nc2nccc(-c3ccnc(NCCCN4CCOCC4)c3)n2)c1 [Compound 8]
Erysiphe graminis
  B6 activity: + (the activity observed in the corresponding test system is 70% or more)
Botrytis cinerea [3]
  B8 activity: + (the activity observed in the corresponding test system is 70% or more)

## COCC(C)Nc1cc(-c2ccnc(Nc3cccc(OC(F)(F)C(F)F)c3)n2)ccn1 (centres unmarked) [Compound 5]
[1]
  B10 activity: + (the activity observed in the corresponding test system is 70% or more)
Fusarium culmorum
  B11 activity: + (key: +: the activity observed in the corresponding test system is 70% or more)
Septoria nodorum
  B12 activity: + (the activity observed in the corresponding test system is 70% or more)

## Clc1cccc(Nc2nccc(-c3ccnc(NCCCn4ccnc4)c3)n2)c1 [Compound 43]
[1]
  B10 activity: + (the activity observed in the corresponding test system is 70% or more)
Septoria nodorum
  B12 activity: + (the activity observed in the corresponding test system is 70% or more)
Botrytis cinerea [2]
  B7 activity: + (the activity observed in the corresponding test system is 70% or more)
Pyricularia oryzae
  B9 activity: + (the activity observed in the corresponding test system is 70% or more)
Botrytis cinerea [3]
  B8 activity: + (the activity observed in the corresponding test system is 70% or more)

## COCCNc1cc(-c2ccnc(Nc3cccc(Cl)c3)n2)ccn1 [Compound 34]
[1]
  B10 activity: + (the activity observed in the corresponding test system is 70% or more)
Fusarium culmorum
  B11 activity: + (key: +: the activity observed in the corresponding test system is 70% or more)
Septoria nodorum
  B12 activity: + (the activity observed in the corresponding test system is 70% or more)
Botrytis cinerea [2]
  B7 activity: + (the activity observed in the corresponding test system is 70% or more)
Botrytis cinerea [3]
  B8 activity: + (the activity observed in the corresponding test system is 70% or more)

## O=C(Nc1cc(-c2ccnc(Nc3cccc(Cl)c3)n2)ccn1)C(F)(F)F [Compound 63]
other
  melting point: 180 to 181 °C
[1]
  pest or weed control at 0.02 % strength: > 70%
Venturia inaegualis
  B5 activity: + (the activity observed in the corresponding test system is 70% or more)
Septoria nodorum
  pest or weed control at 0.02 % strength: > 70%
Botrytis cinerea [2]
  B7 activity: + (the activity observed in the corresponding test system is 70% or more)
Pyricularia oryzae
  B9 activity: + (the activity observed in the corresponding test system is 70% or more)
Botrytis cinerea [3]
  B8 activity: + (the activity observed in the corresponding test system is 70% or more)
